Test results: patent US20080058703A1, “Drug electrotransport with hydration measurement of hydratable reservoir” (priority 2006, published 2008)

Experiment: In vitro skin flux of apomorphine by electrotransport from hydrated TECOGEL matrix (horizontal diffusion cell)
Type: in vitro ADME
Conditions: in vitro electrotransport from hydrated TECOGEL matrix across heat separated human epidermis
Description: The diamond symbols show the average data points at particular time intervals and the vertical lines show the standard deviation. Measurement of impedance during hydration of TECOGEL® is reported in FIG. 8 and described in Example 3 below. The flux of apomorphine free base is plotted as a function of electrotransport time (in hrs). The unit for the flux is μg/cm^2 hr. […] It is noted that the TECOGEL® was used to illustrate that hydration can be done and the level of hydration measured. The exact type of polyurethane gel used is not critical as long a gel can be formed that can allow drug ions to migrate under an electrical potential.
The following methodology was used for the in vitro flux experiments for illustrative purposes:
Custom-built horizontal diffusion cells made in-house from DELRIN® polymeric material were used for the in vitro skin flux experiments and heat separated human epidermis was used. A consumable Ag electrode with the same polarity as the drug was adhered to one end of a DELRIN® material diffusion cell that functioned as the donor cell. […]
A Hanson Research MICROETTE™ collection system, interfaced to the experimental set up, collected the drug containing receptor solution from the reservoir underneath the skin directly into HPLC vials. […] The Hanson system collected samples to be analyzed by an HPLC to determine delivery efficiency of the drug in the formulation. […]

With `CN1CCc2cccc3c2[C@H]1Cc1ccc(O)c(O)c1-3` [apomorphine] the “rise to steady state time” value was “about 3 hours” and the “steady state flux of apomorphine free base” value (37° C., until about 24 hours) was “about 32 μg/cm^2 hr”.
